The structures appear in SMILES notation.

The source of these data is patent publication US20200405697A1, “Antitumor Agent” (Taiho Pharmaceutical Co., Ltd, priority 2017, published 2020).

For this test, the target named is T1, human RNR (histidine tagged human M1 and human M2 proteins) (Homo sapiens, UniProt P23921).
T1 construct: made in house; host or cells: Escherichia coli
T1 sequence (P23921 1-792): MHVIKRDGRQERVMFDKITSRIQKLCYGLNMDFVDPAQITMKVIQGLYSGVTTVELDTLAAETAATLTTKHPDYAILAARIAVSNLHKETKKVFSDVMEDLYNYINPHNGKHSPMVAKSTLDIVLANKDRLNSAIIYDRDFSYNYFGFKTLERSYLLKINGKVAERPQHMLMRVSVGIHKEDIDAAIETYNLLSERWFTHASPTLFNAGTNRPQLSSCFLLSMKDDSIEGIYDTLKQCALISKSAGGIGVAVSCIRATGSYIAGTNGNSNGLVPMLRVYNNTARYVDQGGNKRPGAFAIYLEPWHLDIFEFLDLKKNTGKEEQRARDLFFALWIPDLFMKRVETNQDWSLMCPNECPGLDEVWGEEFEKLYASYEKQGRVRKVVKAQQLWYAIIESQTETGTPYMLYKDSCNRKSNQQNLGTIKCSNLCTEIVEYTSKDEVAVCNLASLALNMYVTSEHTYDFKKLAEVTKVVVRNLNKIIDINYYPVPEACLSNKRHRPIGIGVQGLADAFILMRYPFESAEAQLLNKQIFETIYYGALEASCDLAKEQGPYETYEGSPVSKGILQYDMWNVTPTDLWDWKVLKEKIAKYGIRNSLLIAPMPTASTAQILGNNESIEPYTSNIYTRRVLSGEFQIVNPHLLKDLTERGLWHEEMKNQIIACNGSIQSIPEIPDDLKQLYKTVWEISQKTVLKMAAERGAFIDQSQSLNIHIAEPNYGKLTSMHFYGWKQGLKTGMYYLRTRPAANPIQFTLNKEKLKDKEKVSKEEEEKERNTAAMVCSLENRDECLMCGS
Nature of the test: Human RNR inhibition effect (dCDP formation from CDP). It is filed as biochemical. As to conditions: 10 μM CDP, 37° C. for 30 minutes, read-out: RNR inhibitory activity IC50. The protocol:
The inhibitory activity against the ribonucleotide reduction reaction (RNR inhibitory activity) of the Example compound was determined by measuring the formation of deoxycytidine diphosphate (hereinafter referred to as dCDP) from cytidine diphosphate (hereinafter referred to as CDP) by the following method.
Human M1 subunit (isoform 1, GenBank accession No: NM_001033), to which a histidine tag is fused at the amino terminus, and human M2 subunit (mutant lacking amino terminal 59 amino acids of isoform 2, GenBank accession No: NM_001034), to which a histidine tag is fused, were overexpressed in Escherichia coli and were solubilized after collection, and histidine tagged human M1 and histidine tagged human M2 proteins were purified on a nickel chelate column. A mixture of the histidine tagged human M1 and histidine tagged human M2 proteins was used as RNR in the ribonucleotide reduction reaction. [to]
First, Example compounds were serially diluted with DMSO. Next, human M1 protein and human M2 protein were added to a 0.02% aqueous albumin solution derived from fetal bovine serum, a DMSO solution of the Example compound or the control DMSO solution (final concentration of DMSO was 1%) was added, and the mixture was allowed to stand for 20 minutes. Thereafter, the reaction buffer [50 mM HEPES buffer (pH 7.2) at the final concentration, 4 mM magnesium acetate at the final concentration, 100 mM potassium chloride at the final concentration, 6 mM dithiothreitol at the final concentration, 2 mM adenosine triphosphate at the final concentration, 0.24 mM nicotinamide adenine dinucleotide phosphate at final concentration] and 10 μM CDP at the final concentration were added and incubated at 37° C. for 30 minutes to perform ribonucleotide reduction reaction. Immediately after the reaction, the reaction was stopped by heating at 100° C. for 15 minutes, followed by centrifugation at 10,000 rpm for 10 minutes. After the centrifugation, a portion (5 μL) of the resulting supernatant was analyzed with a high performance liquid chromatography (Shimadzu Corporation, Prominence) using Shim-pack XR-ODS (manufactured by Shimadzu GLC Co., 3.0×100 mm).
`Cc1c(C(F)(F)F)ccc(F)c1[C@@H](C)[C@H](NS(=O)(=O)c1ccc(Cl)cc1C(N)=O)c1n[nH]c(=O)o1` [Example 27, 5-chloro-2-(N-((1S,2R)-2-(6-fluoro-2-methyl-3-(trifluoromethyl)phenyl)-1-(5-oxo-4,5-dihydro-1,3,4-oxadiazol-2-yl)propyl)sulfamoyl)benzamide]: the IC50 was 550 nM.
The same measure for `Cc1ccc(F)c([C@@H](C)[C@H](NS(=O)(=O)c2cc(C(=O)N(C)C)c(Cl)cc2C(N)=O)c2n[nH]c(=O)o2)c1C` [Example 39, 2-chloro-5-(N-((1S,2R)-2-(6-fluoro-2,3-dimethylphenyl)-1-(5-oxo-4,5-dihydro-1,3,4-oxadiazol-2-yl)propyl)sulfamoyl)-N1,N1-dimethyl terephthalamide]: 40 nM.
For the compound `CC(O)c1nc(S(=O)(=O)N[C@H](c2n[nH]c(=O)o2)[C@H](C)c2cccc3c2CCC3)ccc1Cl` (stereo partly drawn) [Example 202, 5-chloro-N-((1S,2R)-2-(2,3-dihydro-1H-inden-4-yl)-1-(5-oxo-4,5-dihydro-1,3,4-oxadiazol-2-yl)propyl)-6-(1-hydroxyethyl)pyridine-2-sulfonamide], the IC50 was 400 nM.
For `Cc1ccc(F)c([C@@H](C)[C@H](NS(=O)(=O)c2ccc(Cl)cc2C(=O)NOCc2ccccc2)c2n[nH]c(=O)o2)c1C` [Example 282, N-(benzyloxy)-5-chloro-2-(N-((1S,2R)-2-(6-fluoro-2,3-dimethylphenyl)-1-(5-oxo-4,5-dihydro-1,3-oxadiazol-2-yl)propyl)sulfamoyl)benzamide] the value was 910 nM; for `Cc1c(Br)ccc(F)c1[C@@H](C)[C@H](NS(=O)(=O)c1ccc(Cl)c2c1OCCC2=O)c1n[nH]c(=O)o1` [Example 124, N-((1S,2R)-2-(3-bromo-6-fluoro-2-methylphenyl)-1-(5-oxo-4,5-dihydro-1,3,4-oxadiazol-2-yl)propyl)-5-chloro-4-oxochroman-8-sulfonamide], 90 nM.
For `CC1CCc2cccc(C(C)[C@H](NS(=O)(=O)c3ccc(Br)cn3)c3n[nH]c(=O)o3)c21` (stereo partly drawn) [Example 48, 5-bromo-N-((1S)-2-(3-methyl-2,3-dihydro-1H-inden-4-yl)-1-(5-oxo-4,5-dihydro-1,3,4-oxadiazol-2-yl)propyl)pyridine-2-sulfonamide] the value was 600 nM.
Regarding `Cc1ccc(F)c([C@@H](C)[C@H](NS(=O)(=O)c2ccc(Cl)c3cccnc23)c2n[nH]c(=O)o2)c1C` [Example 153, 5-chloro-N-((1S,2R)-2-(6-fluoro-2,3-dimethylphenyl)-1-(5-oxo-4,5-dihydro-1,3,4-oxadiazol-2-yl)propyl)quinoline-8-sulfonamide], the IC50 was 110 nM.
For `Cc1ccc(F)c([C@@H](C)[C@H](NS(=O)(=O)c2ccc(Cl)cc2C(C)O)c2n[nH]c(=O)o2)c1C` (stereo partly drawn) [Example 236, 4-chloro-N-((1S,2R)-2-(6-fluoro-2,3-dimethylphenyl)-1-(5-oxo-4,5-dihydro-1,3,4-oxadiazol-2-yl)propyl)-2-(1-hydroxyethyl)benzenesulfonamide] the value was 380 nM.
`Cc1ccc(F)c([C@H](C)[C@H](NS(=O)(=O)c2ccc(Cl)cc2C(N)=O)c2n[nH]c(=O)o2)c1C` [Example 32, 5-chloro-2-(N-((1S,2S)-2-(6-fluoro-2,3-dimethylphenyl)-1-(5-oxo-4,5-dihydro-1,3,4-oxadiazol-2-yl)propyl)sulfamoyl)benzamide]: the IC50 was found to be 790 nM.
For `Cc1c(Cl)ccc(F)c1[C@@H](C)[C@H](NS(=O)(=O)c1ccc(Br)cc1C(N)=O)c1n[nH]c(=O)o1` [Example 25, 5-bromo-2-(N-((1S,2R)-2-(3-chloro-6-fluoro-2-methylphenyl)-1-(5-oxo-4,5-dihydro-1,3,4-oxadiazol-2-yl)propyl)sulfamoyl)benzamide] the value was 150 nM; for `COC(=O)c1cc(Cl)cnc1S(=O)(=O)N[C@H](c1n[nH]c(=O)o1)[C@H](C)c1c(F)ccc(C)c1C` [Example 118, methyl 5-chloro-2-(N-((1S,2R)-2-(6-fluoro-2,3-dimethylphenyl)-1-(5-oxo-4,5-dihydro-1,3,4-oxadiazol-2-yl)propyl)sulfamoyl)nicotinate], 340 nM.
